Data: patent US12629370B2, “Treatment of prostate cancer” (Sumitomo Pharma Co., Ltd., priority 2016, dated 2026)
Where a SMILES comes first, the peptide text is derived from it. [ ]: non-standard residue; d: D form. The star is where a group is joined. dPhe(4-NHCONH2) = NC(=O)Nc1ccc(C[C@@H](N)C(=O)O)cc1; Dihydroorotyl(S) = O=C1C[C@@H](C(=O)*)NC(=O)N1; dPhe(4-Cl) = N[C@H](Cc1ccc(Cl)cc1)C(=O)O; Phe(4-NH2) = Nc1ccc(C[C@H](N)C(=O)O)cc1; d2Nal = N[C@H](Cc1ccc2ccccc2c1)C(=O)O; Lys(iPr) = CC(C)NCCCC[C@H](N)C(=O)O; d3Pal = N[C@H](Cc1cccnc1)C(=O)O

What was measured:
Format in all cases: in vivo, human
[1] = tested on: FSH; experiment: Example 9: FSH
Protocol: (§1) Eligible male patients were aged ≥18 years with a histologically confirmed diagnosis of localized, intermediate-risk prostate cancer, for whom 6-month neoadjuvant and adjuvant androgen deprivation therapy (ADT) to external beam radiation therapy (EBRT) was indicated. The criteria for establishing intermediate-risk prostate cancer included the presence of one of the following, without any high-risk feature: T2b-T2c disease, Gleason score 7, or prostate-specific antigen (PSA) 10-20 ng/mL. Additional inclusion criteria included: EBRT scheduled to begin ≥12 weeks after baseline visit; screening serum testosterone >150 ng/dL (5.2 nmol/L); screening PSA concentration >2 ng/ml; body mass index ≥18.0 at screening or baseline (i.e., the subject's BMI prior to treatment commencing); Eastern Cooperative Oncology Group performance status of 0 or 1 at screening. Based on investigator discretion and clinical assessment of the patient's overall medical and disease status, participation was allowed for older patients with high-risk disease (e.g., based on Gleason score or tumor status) who were deemed likely to benefit from 6 months of neoadjuvant/adjuvant ADT. Most patients had intermediate-risk disease. However, a few patients, based on Gleason score or tumor, node, and metastasis staging system, were technically of higher than intermediate risk.
(§2) Both treatment arms received treatment for 24 weeks. Patients remained on treatment for at least 12 weeks before the start of external beam radiation treatment (EBRT), which was initiated for most patients between Week 13, Day 1 and Week 15, Day 1. EBRT began no later than day 1, week 17.
(§3) Patients were evaluated every 4 weeks during the treatment period (including day 1, week 25), at end of treatment (defined as week 29), during follow-up (week 33), and at end of study (EOS).
(§4) Samples for testosterone, luteinizing hormone (LH), FSH, and PSA concentrations were taken at screening, on day 1 of the first week (additionally days 2 and 4 for testosterone and LH), and on day 1 of weeks 2, 3, 5, 9, 13, 17, 21, 25, 29, 33, and 37 thereafter. […] Suppression of FSH was less profound than that of LH, but consistent with the literature, and was greater than that observed with GnRH agonists.

[2] = tested on: PSA; experiment: Example 9: PSA
Protocol: as §1, §2, §3, §4

[3] = tested on: patients with intermediate-risk prostate cancer; experiment: Example 9: quality of life (EORTC QLQ-C30, QLQ-PR25, AMS)
Protocol: as §1, §2
Quality of Life (QoL) was assessed via the core 30-item European Organisation for Research and Treatment of Cancer quality of life questionnaire (EORTC QLQ-C30), the 25-item prostate cancer module EORTC questionnaire (EORTC QLQ-PR25), and the aging male survey (AMS). QoL assessments were completed at screening, on day 1 of weeks 1, 5, 13, and 25, and at weeks 29, 33, and 37.

[4] = tested on: LH; experiment: Example 9: LH
Protocol: (§5) Eligible male patients were aged ≥18 years with a histologically confirmed diagnosis of localized, intermediate-risk prostate cancer, for whom 6-month neoadjuvant and adjuvant androgen deprivation therapy (ADT) to external beam radiation therapy (EBRT) was indicated. The criteria for establishing intermediate-risk prostate cancer included the presence of one of the following, without any high-risk feature: T2b-T2c disease, Gleason score 7, or prostate-specific antigen (PSA) 10-20 ng/mL. […] Based on investigator discretion and clinical assessment of the patient's overall medical and disease status, participation was allowed for older patients with high-risk disease (e.g., based on Gleason score or tumor status) who were deemed likely to benefit from 6 months of neoadjuvant/adjuvant ADT.
Both treatment arms received treatment for 24 weeks. […] EBRT began no later than day 1, week 17.
as §3
(§6) Samples for testosterone, luteinizing hormone (LH), FSH, and PSA concentrations were taken at screening, on day 1 of the first week (additionally days 2 and 4 for testosterone and LH), and on day 1 of weeks 2, 3, 5, 9, 13, 17, 21, 25, 29, 33, and 37 thereafter.

[5] = tested on: serum testosterone; experiment: Example 9: serum testosterone, castration and recovery, neoadjuvant/adjuvant ADT to EBRT, versus degarelix; settings: for Percent recovery (95% CI) to baseline testosterone or >280 ng/dL: 12 weeks from last dose
Protocol: as §5
Both treatment arms received treatment for 24 weeks. […] EBRT began no later than day 1, week 17. […]
as §6

[6] = from baseline (day 1) to week 25
[7] = subjects with at least 24 weeks of treatment

CC(=O)N[C@H](Cc1ccc2ccccc2c1)C(=O)N[C@H](Cc1ccc(Cl)cc1)C(=O)N[C@H](Cc1cccnc1)C(=O)N[C@@H](CO)C(=O)N[C@@H](Cc1ccc(NC(=O)[C@@H]2CC(=O)NC(=O)N2)cc1)C(=O)N[C@H](Cc1ccc(NC(N)=O)cc1)C(=O)N[C@@H](CC(C)C)C(=O)N[C@@H](CCCCNC(C)C)C(=O)N1CCC[C@H]1C(=O)N[C@H](C)C(N)=O [Degarelix, degarelix, reference compound] (Ac-[d2Nal][dPhe(4-Cl)][d3Pal]S[Phe(4-NH2)](Dihydroorotyl(S))[dPhe(4-NHCONH2)]L[Lys(iPr)]P[dA]-NH2)
FSH level before administration ([1]; Baseline): 11.716 IU/L
FSH level ([1]; Week 2, Day 1): 2.519 IU/L
mean FSH level ([1]; Week 25, Day 1): 1.471 IU/L
Median PSA ([2]; Baseline): 7.3 µg/L
Median PSA ([2]; Week 24): 0.1 µg/L
Median PSA ([2]; Week 28/EOT visit): 0.07 µg/L
Median PSA ([2]; Week 32/follow-up): 0.07 µg/L
Median PSA ([2]; Week 36/EOS): 0.07 µg/L
patients achieving PSA values less than 0.2 ng/ml ([2]; by the end of 12 weeks): 1 of 20
Global health/QoL, Mean (SD) change [3, 6]: −7.5 (13.7)
Hormonal treatment-related symptoms, Mean (SD) change [3, 6]: 12.9 (10.4)
Sexual activity, Mean (SD) change [3, 6]: −11.8 (36.3)
Global health/QoL, Mean (SD) change ([3]; from baseline to week 36 (EOS)): −6.8 (16.0)
Hormonal treatment-related symptoms, Mean (SD) change ([3]; from baseline to week 36 (EOS)): 11.7 (10.2)
Sexual activity, Mean (SD) change ([3]; from baseline to week 36 (EOS)): −5.3 (34.7)
Global health/QoL, Mean (SD) change ([3]; from week 25 to week 36): 0.7 (15.5)
Hormonal treatment-related symptoms, Mean (SD) change ([3]; from week 25 to week 36): −1.2 (9.1)
Sexual activity, Mean (SD) change ([3]; from week 25 to week 36): 6.6 (22.8)
Median LH ([4]; Baseline): 4.8 mlU/mL
LH level ([4]; Day 4): 0.499 mIU/mL
Median LH ([4]; Week 24): 0.1 mlU/mL
mean LH level ([4]; Week 25, Day 1): 0.342 IU/L
Median LH ([4]; Week 28/EOT visit): 0.2 mlU/mL
Median LH ([4]; Week 32/follow-up): 0.5 mlU/mL
Median LH ([4]; Week 36/EOS): 1.4 mlU/mL
Kaplan-Meier estimate (95% CI) of testosterone recovery, probability of event ([5]; 4 weeks from last dose): 0.00 (0.00.0.00)
Kaplan-Meier estimate (95% CI) of testosterone recovery, probability of event ([5]; 8 weeks from last dose): 0.00 (0.00.0.00)
patients whose serum testosterone met the definition of recovery ([5]; 12-week follow-up): 6 of 38
Percent recovery (95% CI) to baseline testosterone or >280 ng/dL [5]: 5.3 (0.6.17.7) %
Percent recovery (95% CI) to baseline testosterone or >280 ng/dL ([5]; listed as degarelix): 5.3%
Median testosterone ([5]; Baseline): 403.8 ng/dL
Testosterone Median ([5]; Baseline): 14.020 nmol/L
Testosterone Mean (Std Dev) ([5]; Baseline, Compound 1 120 mg QD or degarelix 80 mg Q4W): 14.567 (5.5680) nmol/L
Testosterone Mean (Std Dev) ([5]; EOS): 3.038 (4.0224) nmol/L
Testosterone Median ([5]; EOS): 1.040 nmol/L
Testosterone Mean (Std Dev) ([5]; EOT): 0.576 (1.2218) nmol/L
Testosterone Median ([5]; EOT): 0.335 nmol/L
Testosterone Mean (Std Dev) ([5]; Follow-Up): 1.206 (1.9330) nmol/L
Testosterone Median ([5]; Follow-Up): 0.560 nmol/L
Median testosterone ([5]; Week 24): 8.9 ng/dL
Testosterone Mean (Std Dev) ([5]; Week 25, Day 1): 0.582 (1.5107) nmol/L
Testosterone Median ([5]; Week 25, Day 1): 0.310 nmol/L
Median testosterone ([5]; Week 28/EOT visit): 9.6 ng/dL
Median testosterone ([5]; Week 32/follow-up): 16.1 ng/dL
Median testosterone ([5]; Week 36/EOS): 30.0 ng/dL
patients recovered to baseline testosterone or greater than 280 ng/dL ([5]; end of 12-week follow-up): 6%
median serum testosterone ([5]; end of study visit): < 50 ng/dL
Median time to medical castration (≤50 ng/dL) ([5]; in vivo): 3 days
Median time to profound castration (≤20 ng/dL) ([5]; in vivo): 12 days
medical castration rate (less than 50 ng/dL) ([5]; over 24 weeks, overall): 89%
profound castration rate (less than 20 ng/dL) ([5]; over 24 weeks, overall): 68%
Testosterone recovery (baseline or >280 ng/dL): number with events ([5]; overall safety population): 6 (16) n (%)
Testosterone recovery: number censored ([5]; overall safety population): 32 (84) n (%)
Time to testosterone recovery, 25th percentile (95% CI) ([5]; overall safety population): 100 (87.106) days
Time to testosterone recovery, 75th percentile (95% CI) ([5]; overall safety population): 106 (100.106) days
Time to testosterone recovery, Median (95% CI) ([5]; overall safety population): 100 (100.106) days
Time to testosterone recovery, Median (95% CI) ([5]; overall safety population, listed as degarelix): 100 (100, 106) days
medical castration rate (less than 50 ng/dL) [5, 7]: 86%
profound castration rate (less than 20 ng/dL) [5, 7]: 71%
